Experimental data taken from EPA's ToxRefDB 2.

Key:
dog = conditions: Chronic toxicity, beagle, Oral, Feed, dose end: 52 week, group: systemic
mouse [1] = conditions: Subchronic oral toxicity in rodents, cd1, Feed, dose end: 98 day, group: systemic, systemic / organ weight / liver / absolute + systemic / organ weight / liver / relative to body weight + systemic / pathology microscopic / …
rabbit = conditions: Prenatal developmental toxicity study, new zealand white, Oral, Gavage/Intubation, dose end: 18 GD
rat [2] = conditions: Combined chronic toxicity/carcinogenicity, wistar, Oral, Feed, dose end: 24 month, group: systemic
mouse [3] = conditions: Carcinogenicity, other, Oral, Feed, dose end: 24 month, group: systemic
rat [4] = conditions: Subchronic oral toxicity in rodents, wistar, Feed, dose end: 98 day, group: systemic
rat [5] = conditions: Prenatal developmental toxicity study, sprague dawley, Oral, Gavage/Intubation, dose end: 15 GD
[6] = systemic / clinical chemistry / alanine aminotransferase (alt/sgpt) / alanine aminotransferase (alt/sgpt) + systemic / clinical chemistry / …
[7] = systemic / pathology microscopic / spleen / hemosiderosis + systemic / pathology microscopic / liver / cytoplasmic alteration
[8] = group: developmental, developmental / developmental malformation / bone / incomplete ossification
[9] = group: maternal, systemic / in life observation / body weight / body weight gain + systemic / in life observation / food consumption / food consumption
[10] = systemic / clinical chemistry / creatinine / creatinine
[11] = systemic / clinical chemistry / albumin-globulin ratio / albumin-globulin ratio + systemic / clinical chemistry / glucose / glucose
[12] = systemic / pathology microscopic / liver / fatty change + systemic / pathology microscopic / liver / granuloma + systemic / pathology …
[13] = systemic / in life observation / body weight / body weight + systemic / in life observation / body weight / body weight gain + systemic / in…
[14] = group: developmental, developmental / developmental malformation / bone / absent + developmental / developmental malformation / bone / delayed ossification + …
[15] = group: maternal, systemic / in life observation / clinical signs / abnormal gait + systemic / in life observation / body weight / body weight + systemic / in…

## CCC/C(=N\OCC)C1=C(O)CC(CC(C)SCC)CC1=O (stereo unspecified) [Sethoxydim]
dog; [6]
  LOAEL: 110 mg/kg/day
  NOAEL: 17.5 mg/kg/day
dog; [7]
  LEL: 8.7 mg/kg/day
  NEL: < 8.7 mg/kg/day
Mouse [1]
  LEL: 137 mg/kg/day
  LOAEL: 137 mg/kg/day
  NEL: 45.6 mg/kg/day
  NOAEL: 45.6 mg/kg/day
rabbit; [8]
  LEL: 400 mg/kg/day
  LOAEL: 400 mg/kg/day
  NEL: 160 mg/kg/day
  NOAEL: 160 mg/kg/day
rabbit; [9]
  LEL: 400 mg/kg/day
  LOAEL: 400 mg/kg/day
  NEL: 160 mg/kg/day
  NOAEL: 160 mg/kg/day
Rat [2]; [10]
  LEL: 12 mg/kg/day
  NEL: < 12 mg/kg/day
Rat [2]; systemic / pathology microscopic / liver / hypertrophy
  LOAEL: 48 mg/kg/day
Rat [2]; systemic / pathology microscopic / liver / hypertrophy + systemic / clinical chemistry / alkaline phosphatase (alp/alk) / alkaline …
  NOAEL: 12 mg/kg/day
Mouse [3]; [11]
  LEL: 4.85 mg/kg/day
  NEL: < 4.85 mg/kg/day
Mouse [3]; [12]
  LOAEL: 41.2 mg/kg/day
  NOAEL: 13.8 mg/kg/day
Rat [4]; [13]
  LOAEL: 196 mg/kg/day
  NEL: 20.1 mg/kg/day
  NOAEL: 60.4 mg/kg/day
Rat [4]; systemic / organ weight / liver / relative to body weight + systemic / pathology microscopic / liver / hypertrophy
  LEL: 60.4 mg/kg/day
Rat [5]; group: developmental, developmental / developmental malformation / bone / absent
  LEL: 180 mg/kg/day
Rat [5]; [14]
  LOAEL: 650 mg/kg/day
  NEL: 50 mg/kg/day
  NOAEL: 180 mg/kg/day
Rat [5]; group: maternal, systemic / in life observation / clinical signs / abnormal gait
  LOAEL: 180 mg/kg/day
Rat [5]; [15]
  NEL: 180 mg/kg/day
  NOAEL: 50 mg/kg/day
Rat [5]; group: maternal, systemic / in life observation / clinical signs / abnormal gait + systemic / in life observation / clinical signs / anogenital staining + …
  LEL: 650 mg/kg/day
